Earlier results as cited in patent publication US7771757B2, “Nasal irrigation solutions and methods of using same” (Himalayan International Institute of Yoga Science and …, priority 2002, dated 2010).

Experiments:
[1] = system: pneumococci
[2] = system: staphylococci
[3] = system: streptococci
[4] = system: common cold; settings: variously administered forms; in many cases

Compound	activity in vitro against the growth of organisms [1]	activity in vitro against the growth of organisms [2]	activity in vitro against the growth of organisms [3]	reduction of the duration of common cold symptoms [4]
COc1ccc2cc3[n+](cc2c1OC)CCc1cc2c(cc1-3)OCO2 [berberine]	active	active	active	
zinc				by half
